Test results from patent US5877026A, “Analgesic peptides from venom of Grammostola spatulata and use thereof” (priority 1998, dated 1999).
Where no end group is shown, it is not given here.

Legend:
Assay type in all cases: in vivo, rat
[1] = system: Sprague-Dawley rats; assay: Tail flick latency
Text: This test measures the time interval required for a rat to withdraw its tail, via a spinally mediated reflex mechanism, from a high intensity light source (IITC Inc./Life Sciences Instruments, Woodland Hills, Calif. 91367) focally applied to the dorsal surface of the appendage. The intensity of the light beam has been experimentally defined such that naive animals will withdraw their tails within 2 to 4 seconds. A maximum cut off time for the light source has been set at ten seconds to reduce the amount of secondary tissue damage.
Data is expressed either as absolute time or a percentage of the maximal possible effect (MPE) which is described by the following equation where 10 seconds is the maximum: [formula] (Latency refers to the amount of time before the animal removed its appendage from the light source.)
(§1) With minimal restraint, peptide GsAF I was injected intrathecally (i.th.) into young (75-150 gram) male Sprague-Dawley rats (Charles Rivers Laboratories, Wilmington, Mass. 01887). I.th. injections were made into the spinal subarachnoid space between lumbar spinous processes L4 and L5 using 10 microliter Hamilton syringes equipped with 3/8 inch by 28G needles. Dosing levels were based upon concentrations deduced from ultraviolet absorbance values at 280 nm using an extinction coefficient of 18710. Injection volume was 10 microliters. The injection vehicle was saline or 0.1% bovine serum albumin(BSA)/saline. The rats were pretreated with GsAF I 30 minutes prior to exposure to the light source.
as §1, with “GsAF II” for “GsAF I”, “Wilmington, Mass.))” for “Wilmington, Mass. 01887). I.th. injections were made”, “using the deduced molar” for “using an”, “of 24310.” for “of 18710.”, “GsAF II 15” for “GsAF I 30”

[2] = system: Sprague-Dawley rats; assay: Hot plate threshold
Method: This test measures the temperature at which point a rat voluntarily removes one of its hindlimbs from the heated surface and either shakes or lick the affected appendage. The temperature of the heated surface is pre-set to the experimentally deduced value of 38° C. and a maximum cutoff value of either 53° C. or 54° C. has been used. Data is expressed either as absolute temperature in degrees C. or as percentage maximal possible effect as described by the formula [formula] (54 is substituted for 53 in the above formula if it is the maximal value.)
as §1, with “Mass.)” for “Mass. 01887). I.th. injections were made”, “0.1 %bovine” for “0.1% bovine”, “heat.” for “the light source.”
as §1, with “GsAF II” for “GsAF I”, “Wilmington, Mass.)” for “Wilmington, Mass. 01887). I.th. injections were made”, “GsAF II 15” for “GsAF I 30”, “to heat.” for “to the light source.”

[3] = system: Sprague-Dawley rats; assay: Formalin pain test; settings: for Acute Flinches, % control / Acute Flinches, absolute level: 0-5 minutes post formalin; for Tonic Flinches, % control / Tonic Flinches, absolute level / Tonic Licking, % control / Tonic Licking, absolute level: 20-35 minutes post formalin
Method: The noxious stimulus for this test is the sub-cutaneous injection of a 5% solution of formalin into the dorsal surface of one of the hindlimbs of the animal. Motor activity indices used in this test are 1) the total time spent licking that appendage and 2) the total number of flinching/shaking responses of the affected appendage. Data collection is initiated immediately upon injection of the formalin solution into the limb. The acute phase response is defined by the time interval of 0-5 minutes post formalin injection. The tonic phase response is defined by the interval of 20-35 minutes post formalin injection Data collection is done in a computerized format. Expression of the data is done using either absolute values or as percent control which is defined by the level of response following injection of saline vehicle.
as §1, with “Mass.)” for “Mass. 01887). I.th. injections were made”, “injection with” for “exposure to”, “formalin solution.” for “light source.”
With minimal restraint, peptide GsAF II was injected intrathecally (i.th.) into young (75-150 gram) male Sprague-Dawley rats (Charles Rivers Laboratories, Wilmington, Mass.) into the spinal subarachnoid space between lumbar spinous processes L4 and L5 using 10 microliter Hamilton syringes equipped with 3/8 inch by 28G needles. Dosing levels were based upon concentrations deduced from ultraviolet absorbance values at 280 nm as stated previously. Based upon a mass of 3980 Da, 583 pmoles corresponds to 2.3 micrograms of GsAF II, and 2.33 nmoles corresponds to 9.3 micrograms of GsAF II. Injection volume was 10 microliters. The injection vehicle was saline or 0.1 % bovine serum albumin(BSA)/saline. The rats were pretreated with GsAF II 15 minutes prior to injection with formalin.
In addition to the above analyses, 180 pmoles (666 nanograms) of GsAF I was administered 5 minutes after injection of 5% formalin and the tonic phase responses were recorded as described previously. The highly efficacious activity of GsAF I was retained. Tonic flinch response was inhibited 86% (i.e. 14% of control) and tonic lick duration was reduced 91 % (i.e. 9% of control). This property has only been reported for strong analgesic compounds that interact with μ-opioid receptors.

[4] = 583 picomoles (2.33 micrograms) i.th., 15 minutes pretreatment
[5] = 583 pmoles i.th., 15 minutes pretreatment
[6] = 2.33 nmoles i.th., 15 minutes pretreatment
[7] = 1.8 pmoles i.th., 30 minutes pretreatment
[8] = 18 pmoles i.th., 30 minutes pretreatment
[9] = 180 pmoles (666 nanograms) administered 5 minutes after injection of 5% formalin
[10] = 180 pmoles i.th., 30 minutes pretreatment

YCQKWMWTCDEERKCCEGLVCRLWCKKKIEW (cysteine pairing not given here) [GsAF II]
inhibition of the tail flick response (latency greater than ten seconds) ([1]; 2.33 nanomoles (9.27 micrograms) i.th., 15 minutes pretreatment, all animals (n=8)): Complete inhibition | confounding side effects ([1]; 2.33 nanomoles and 583 picomoles i.th.): no confounding side effects were detected | animals with 100% MPE, tail flick [1, 4]: five of six | average MPE, tail flick latency [1, 4]: 92% | MPE, hot plate threshold ([2]; 2.33 nanomole (9.27 micrograms) i.th., 15 minutes pretreatment, all animals): 100 % MPE | motor coordination problems ([2]; 2.33 nanomole and 583 picomoles i.th.): No motor coordination problems were witnessed | average MPE, hot plate threshold ([2]; 583 picomoles (2.32 micrograms) i.th., 15 minutes pretreatment): 59% | Acute Flinches, % control [3, 5]: 41% | Acute Flinches, absolute level [3, 5]: 6.8 | Tonic Flinches, % control [3, 5]: 9.5% | Tonic Flinches, absolute level [3, 5]: 8.2 | Tonic Licking, % control [3, 5]: 8.2% | Tonic Licking, absolute level [3, 5]: 7.8 s | Acute Flinches, % control [3, 6]: 19% | Acute Flinches, absolute level [3, 6]: 3.25 | Tonic Flinches, % control [3, 6]: 1.4% | Tonic Flinches, absolute level [3, 6]: 1.2 | Tonic Licking, % control [3, 6]: 0% | Tonic Licking, absolute level [3, 6]: 0 s

Tyr-Cys-Gln-Lys-Trp-Leu-Trp-Thr-Cys-Asp-Ser-Glu-Arg-Lys-Cys-Cys-Glu-Asp-Met-Val-Cys-Arg-Leu-Trp-Cys-Lys-Lys-Arg-Leu-NH2 (YCQKWLWTCDSERKCCEDMVCRLWCKKRL-NH2; cysteine pairing not given here) [GsAF I]
activity in tail flick latency ([1]; 1.8 picomoles (6.6 nanograms) i.th., 30 minutes pretreatment): inactive | MPE, tail flick latency ([1]; 18 picomoles (66 nanograms) i.th., 30 minutes pretreatment): 29 % MPE | MPE, tail flick latency ([1]; 180 picomoles (666 nanograms) i.th., 30 minutes pretreatment): 95 % MPE | inhibition of the tail flick response (latency value greater than 10 seconds) ([1]; 180 picomoles (666 nanograms) i.th., in most rats): Complete inhibition | confounding side effects (motor disturbances, limb impairment/paralysis, righting reflex, sedation) ([1]; 180 picomoles i.th.): either minimal or not present | pretreatment time with maximal activity ([1]; i.th., tail flick): 30 min | MPE, hot plate threshold ([2]; 18 picomoles (6.6 nanograms) i.th., one hour pretreatment): 24 % MPE | activity in hot plate threshold ([2]; 18 picomoles i.th., 30 minute pretreatment): loss of significant activity | adverse motor effects ([2]; 180 and 18 picomoles i.th.): No adverse motor effects were evident | MPE, hot plate threshold ([2]; 180 picomole (66 nanograms) i.th., one hour pretreatment): 91 % MPE | MPE, hot plate threshold ([2]; 180 picomoles (666 nanograms) i.th., 30 minute pretreatment): 70 % MPE | Acute Flinches, % control [3, 7]: 28% | Acute Flinches, absolute level [3, 7]: 12 | Tonic Flinches, % control [3, 7]: 32% | Tonic Flinches, absolute level [3, 7]: 44.3 | Tonic Licking, % control [3, 7]: 46% | Tonic Licking, absolute level [3, 7]: 84.3 s | Acute Flinches, % control [3, 8]: 20% | Acute Flinches, absolute level [3, 8]: 8.5 | Tonic Flinches, % control [3, 8]: 21% | Tonic Flinches, absolute level [3, 8]: 29.5 | Tonic Licking, % control [3, 8]: 8.4% | Tonic Licking, absolute level [3, 8]: 15.3 s | Tonic flinch response, % of control [3, 9]: 14 % of control | Tonic flinch response, inhibition [3, 9]: 86% | tonic lick duration, % of control [3, 9]: 9 % of control | tonic lick duration, reduction [3, 9]: 91% | Acute Flinches, % control [3, 10]: 8.9% | Acute Flinches, absolute level [3, 10]: 3.8 | Tonic Flinches, % control [3, 10]: 3.0% | Tonic Flinches, absolute level [3, 10]: 4.3 | Tonic Licking, % control [3, 10]: 0% | Tonic Licking, absolute level [3, 10]: 0 s
